Test results reported in patent publication US11053204B2, “Pyrimidinyloxy benzene derivatives as herbicides” (FMC Corporation, priority 2015, dated 2021).

Legend:
Assay type in all cases: in vivo
[1] = tested on: lambsquarters (Chenopodium album); assay: Test C postemergence, plant response rating; details: for Lambsquarters plant response rating: scale 0 to 100 (0 no effect, 100 complete control)
Method in brief: (§1)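 Both timings shared one formulation, a non-phytotoxic solvent mixture with surfactant, and a greenhouse period of 13 to 15 d. Preemergence used seeded loam/sand or silt loam soil, postemergence used 2 to 18 cm plants; visual ratings ran from 0 (no effect) to 100 (complete control).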

[2] = tested on: velvetleaf (Abutilon theophrasti); assay: Test C postemergence, plant response rating
Method in brief: as §1

[3] = tested on: galium (catchweed bedstraw, Galium aparine); assay: Test C postemergence, plant response rating; details: for Galium plant response rating: scale 0 to 100 (0 no effect, 100 complete control)
Method in brief: as §1

[4] = tested on: foxtail, giant (giant foxtail, Setaria faberii); assay: Test C postemergence, plant response rating; details: for Foxtail, Giant plant response rating: scale 0 to 100 (0 no effect, 100 complete control)
Method in brief: as §1

[5] = tested on: morningglory (Ipomoea coccinea); assay: Test C postemergence, plant response rating; details: for Morningglory plant response rating: scale 0 to 100 (0 no effect, 100 complete control)
Method in brief: as §1

[6] = tested on: nutsedge, yellow (yellow nutsedge, Cyperus esculentus); assay: Test C postemergence, plant response rating; details: for Nutsedge, Yellow plant response rating: scale 0 to 100 (0 no effect, 100 complete control)
Method in brief: as §1

[7] = tested on: waterhemp (common waterhemp, Amaranthus rudis); assay: Test C postemergence, plant response rating
Method in brief: as §1

soybean (Glycine max) = assay: Test C postemergence, plant response rating; details: for Soybean plant response rating: scale 0 to 100 (0 no effect, 100 complete control)
Method in brief: as §1

[8] = tested on: ragweed (common ragweed, Ambrosia elatior); assay: Test C postemergence, plant response rating; details: for Ragweed plant response rating: scale 0 to 100 (0 no effect, 100 complete control)
Method in brief: as §1

[9] = tested on: chickweed (common chickweed, Stellaria media); assay: Test C postemergence, plant response rating; details: for Chickweed plant response rating: scale 0 to 100 (0 no effect, 100 complete control)
Method in brief: as §1

kochia (Kochia scoparia) = assay: Test C postemergence, plant response rating; details: for Kochia plant response rating: scale 0 to 100 (0 no effect, 100 complete control)
Method in brief: as §1

[10] = tested on: wheat (winter wheat, Triticum aestivum); assay: Test C postemergence, plant response rating
Method in brief: as §1

[11] = tested on: oilseed rape (Brassica napus); assay: Test C postemergence, plant response rating; details: for Oilseed Rape plant response rating: scale 0 to 100 (0 no effect, 100 complete control)
Method in brief: as §1

[12] = tested on: blackgrass (Alopecurus myosuroides); assay: Test C postemergence, plant response rating; details: for Blackgrass plant response rating: scale 0 to 100 (0 no effect, 100 complete control)
Method in brief: as §1

corn (Zea mays) = assay: Test C postemergence, plant response rating; details: for Corn plant response rating: scale 0 to 100 (0 no effect, 100 complete control)
Method in brief: as §1

[13] = tested on: oat, wild (wild oat Avena fatua); assay: Test C postemergence, plant response rating; details: for Oat, Wild plant response rating: scale 0 to 100 (0 no effect, 100 complete control)
Method in brief: as §1

[14] = tested on: pigweed, palmer (palmer pigweed, Amaranthus palmeri); assay: Test C preemergence, plant response rating
[15] = tested on: oat, wild (wild oat Avena fatua); assay: Test C preemergence, plant response rating
[16] = tested on: surinam grass (Brachiaria decumbens); assay: Test C preemergence, plant response rating
[17] = tested on: wild poinsettia (Euphorbia heterophylla); assay: Test C preemergence, plant response rating
[18] = tested on: windgrass (Apera spica-venti); assay: Test C preemergence, plant response rating
[19] = 125 g ai/ha, scale 0 to 100 (0 no effect, 100 complete control)

N#CC(CCCC(F)(F)F)c1ccccc1Oc1ncc(Cl)cn1 (centres unmarked) [Compound 144]
Plant response rating, Lambsquarters ([1]; 16 g ai/ha, scale of 0 to 100): 40 | Plant response rating, Lambsquarters ([1]; 31 g ai/ha, scale 0 to 100): 75 | Lambsquarters plant response rating ([1]; 62 g ai/ha): 70 | Lambsquarters plant response rating ([1]; 125 g ai/ha): 85 | Plant response rating, Velvetleaf ([2]; 16 g ai/ha, scale of 0 to 100): 25 | Plant response rating, Velvetleaf ([2]; 31 g ai/ha, scale 0 to 100): 30 | Velvetleaf plant response rating [2, 19]: 65 | Plant response rating, Galium ([3]; 16 g ai/ha, scale of 0 to 100): 50 | Plant response rating, Galium ([3]; 31 g ai/ha, scale 0 to 100): 70 | Galium plant response rating ([3]; 62 g ai/ha): 85 | Galium plant response rating ([3]; 125 g ai/ha): 90 | Plant response rating, Foxtail, Giant ([4]; 16 g ai/ha, scale of 0 to 100): 5 | Plant response rating, Foxtail, Giant ([4]; 31 g ai/ha, scale 0 to 100): 10 | Foxtail, Giant plant response rating ([4]; 62 g ai/ha): 30 | Foxtail, Giant plant response rating ([4]; 125 g ai/ha): 40 | Plant response rating, Morningglory ([5]; 16 g ai/ha, scale of 0 to 100): 30 | Plant response rating, Morningglory ([5]; 31 g ai/ha, scale 0 to 100): 20 | Morningglory plant response rating ([5]; 62 g ai/ha): 50 | Morningglory plant response rating ([5]; 125 g ai/ha): 60 | Plant response rating, Nutsedge, Yellow ([6]; 16 g ai/ha, scale of 0 to 100): 0 | Plant response rating, Nutsedge, Yellow ([6]; 31 g ai/ha, scale 0 to 100): 0 | Nutsedge, Yellow plant response rating ([6]; 62 g ai/ha): 10 | Nutsedge, Yellow plant response rating ([6]; 125 g ai/ha): 10 | Plant response rating, Waterhemp ([7]; 16 g ai/ha, scale of 0 to 100): 35 | Plant response rating, Waterhemp ([7]; 31 g ai/ha, scale 0 to 100): 60 | Waterhemp plant response rating [7, 19]: 75 | Plant response rating, Waterhemp ([7]; rate not given, scale 0 to 100): 75 | Plant response rating, Soybean (soybean (Glycine max); 16 g ai/ha, scale of 0 to 100): 30 | Plant response rating, Soybean (soybean (Glycine max); 31 g ai/ha, scale 0 to 100): 30 | Soybean plant response rating (soybean (Glycine max); 62 g ai/ha): 50 | Soybean plant response rating (soybean (Glycine max); 125 g ai/ha): 65 | Plant response rating, Ragweed ([8]; 16 g ai/ha, scale of 0 to 100): 10 | Plant response rating, Ragweed ([8]; 31 g ai/ha, scale 0 to 100): 15 | Ragweed plant response rating ([8]; 62 g ai/ha): 25 | Ragweed plant response rating ([8]; 125 g ai/ha): 15 | Plant response rating, Chickweed ([9]; 16 g ai/ha, scale of 0 to 100): 50 | Plant response rating, Chickweed ([9]; 31 g ai/ha, scale 0 to 100): 55 | Chickweed plant response rating ([9]; 62 g ai/ha): 85 | Chickweed plant response rating ([9]; 125 g ai/ha): 85 | Plant response rating, Kochia (kochia (Kochia scoparia); 16 g ai/ha, scale of 0 to 100): 85 | Plant response rating, Kochia (kochia (Kochia scoparia); 31 g ai/ha, scale 0 to 100): 90 | Kochia plant response rating (kochia (Kochia scoparia); 62 g ai/ha): 90 | Kochia plant response rating (kochia (Kochia scoparia); 125 g ai/ha): 90 | Plant response rating, Wheat ([10]; 16 g ai/ha, scale of 0 to 100): 5 | Plant response rating, Wheat ([10]; 31 g ai/ha, scale 0 to 100): 5 | Wheat plant response rating [10, 19]: 15 | Plant response rating, Oilseed Rape ([11]; 16 g ai/ha, scale of 0 to 100): 35 | Plant response rating, Oilseed Rape ([11]; 31 g ai/ha, scale 0 to 100): 35 | Oilseed Rape plant response rating ([11]; 62 g ai/ha): 70 | Oilseed Rape plant response rating ([11]; 125 g ai/ha): 85 | Plant response rating, Blackgrass ([12]; 16 g ai/ha, scale of 0 to 100): 10 | Plant response rating, Blackgrass ([12]; 31 g ai/ha, scale 0 to 100): 10 | Blackgrass plant response rating ([12]; 62 g ai/ha): 15 | Blackgrass plant response rating ([12]; 125 g ai/ha): 15 | Plant response rating, Corn (corn (Zea mays); 16 g ai/ha, scale of 0 to 100): 15 | Plant response rating, Corn (corn (Zea mays); 31 g ai/ha, scale 0 to 100): 15 | Corn plant response rating (corn (Zea mays); 62 g ai/ha): 20 | Corn plant response rating (corn (Zea mays); 125 g ai/ha): 25 | Plant response rating, Oat, Wild ([13]; 16 g ai/ha, scale of 0 to 100): 20 | Plant response rating, Oat, Wild ([13]; 31 g ai/ha, scale 0 to 100): 30 | Oat, Wild plant response rating ([13]; 62 g ai/ha): 30 | Oat, Wild plant response rating ([13]; 125 g ai/ha): 35 | Plant response rating, Pigweed, Palmer ([14]; 31 g ai/ha, scale 0 to 100): 100 | Plant response rating, Pigweed, Palmer ([14]; 62 g ai/ha, scale 0 to 100): 100 | Plant response rating, Pigweed, Palmer ([14]; 125 g ai/ha, scale of 0 to 100): 100 | Plant response rating, Oat, Wild ([15]; 31 g ai/ha, scale 0 to 100): 5 | Plant response rating, Oat, Wild ([15]; 62 g ai/ha, scale 0 to 100): 10 | Plant response rating, Oat, Wild ([15]; 125 g ai/ha, scale of 0 to 100): 10 | Plant response rating, Surinam Grass ([16]; 31 g ai/ha, scale 0 to 100): 5 | Plant response rating, Surinam Grass ([16]; 62 g ai/ha, scale 0 to 100): 70 | Plant response rating, Surinam Grass ([16]; 125 g ai/ha, scale of 0 to 100): 60 | Plant response rating, Poinsettia, Wild ([17]; 31 g ai/ha, scale 0 to 100): 5 | Plant response rating, Poinsettia, Wild ([17]; 62 g ai/ha, scale 0 to 100): 40 | Plant response rating, Poinsettia, Wild ([17]; 125 g ai/ha, scale of 0 to 100): 80 | Plant response rating, Windgrass ([18]; 31 g ai/ha, scale 0 to 100): 30 | Plant response rating, Windgrass ([18]; 62 g ai/ha, scale 0 to 100): 80 | Plant response rating, Windgrass ([18]; 125 g ai/ha, scale of 0 to 100): 90
